Laboratory results taken from patent US9249128B2 (priority 2010, dated 2016).
Like-named read-outs stand apart in the source and are kept apart here.

Tests used:
[1] = tested on: PC3 and DU145 cells; experiment: Invasion assay (Matrigel chambers); type: cell-based, human; details: 10 μM, 4 h in situ
Description: (§1) Inhibitors were dissolved in DMSO and diluted into media or buffer prior to cell or proteome treatment, respectively. For in vitro treatment, final DMSO concentration was 4%. For in situ treatments of cells for ABPP, lipid measurements, migration, cell-survival, and invasion assays, 2×10^6 cells were seeded in 6 cm dishes (˜100% confluency) 24 h prior to inhibitor pre-treatment (in DMSO at 0.1% final concentration) in serum-free media (3 mL) for the designated time before harvesting cells for ABPP or lipid measurements or before the initiation of migration, cell-survival, and invasion assays.
(§2) Cell migration, cell survival, and invasion studies were performed as previously described (Nomura et al., 2010). Briefly, migration assays were performed in Transwell chambers (Corning) with 8 μm pore-sized membranes coated with 10 μg/mL collagen at 37° C. for LNCaP (24 h), PC3 (4 h) and DU145 cells (24 h), respectively. Cell survival assays were performed using the Cell Proliferation Reagent WST-1 (Roche) Invasion assays were conducted using the BD Matrigel Invasion Chambers per the manufacturer's protocol. Inhibitors were preincubated for the stated duration before seeding cells into migration, cell-survival, or invasion chambers. Prior to seeding the cells in these chambers, cells were serum-starved for 4 h. Inhibitors were also present during the migration, cell-survival, and invasion assays.

[2] = tested on: MAGE levels in PC3 and DU145 cells; experiment: Lipid (MAGE) measurements in cancer cells; type: cell-based, human; details: 10 μM, 4 h in situ
Description: as §1
Lipid measurements were performed in cancer cells as previously described (Chiang et al., 2006). Briefly, frozen cell pellets from cells harvested after 4 h serum starvation were extracted in 2:1:1 chloroform:methanol:Tris buffer pH 8.0 by dounce homogenization with 10 nmol of internal standard C12 MAGE. The organic layer was removed, dried under N2, and resuspended in 120 μL of chloroform, and 30 μL was injected into an Agilent 1100-MSD LC-MS. MAGE levels were quantified by measuring the area under the peak and were normalized to the C12 MAGE internal standard.

[3] = tested on: PC3 and DU145 cells; experiment: Serum-free cell survival assay (WST-1); type: cell-based, human; details: 10 μM, 4 h in situ
Description: as §1, §2

[4] = target: T1, AChE (Mus musculus, UniProt P21836); experiment: AChE activity assay with acetylthiocholine in mouse brain proteome; type: biochemical; details: acetylthiocholine hydrolysis in mouse brain membrane proteome
T1 construct: 20 μg of cell lysate or mouse brain membrane proteome; from tissue; host or cells: mouse brain (membrane proteome)
T1 sequence (P21836 32-614): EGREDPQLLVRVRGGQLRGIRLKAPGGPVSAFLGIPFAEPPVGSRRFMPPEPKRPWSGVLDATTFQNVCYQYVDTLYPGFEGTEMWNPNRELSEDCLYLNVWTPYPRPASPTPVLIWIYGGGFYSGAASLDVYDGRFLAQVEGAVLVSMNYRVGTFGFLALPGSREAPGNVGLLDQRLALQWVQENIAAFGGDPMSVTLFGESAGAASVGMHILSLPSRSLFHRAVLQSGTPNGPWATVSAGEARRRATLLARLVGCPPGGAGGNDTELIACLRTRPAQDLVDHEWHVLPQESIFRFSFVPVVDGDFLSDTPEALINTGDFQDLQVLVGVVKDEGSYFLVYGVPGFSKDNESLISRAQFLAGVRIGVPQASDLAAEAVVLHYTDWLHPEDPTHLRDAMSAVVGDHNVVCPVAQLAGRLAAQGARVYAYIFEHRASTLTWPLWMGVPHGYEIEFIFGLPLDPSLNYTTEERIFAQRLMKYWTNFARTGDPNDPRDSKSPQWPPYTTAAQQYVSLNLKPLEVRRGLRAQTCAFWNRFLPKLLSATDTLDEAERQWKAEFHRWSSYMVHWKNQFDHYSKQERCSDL
Description: AChE activity was measured using a method similar to that described previously (Ellman et al., 1961). Briefly, 50 μL of 10 mM acetylthiocholine was added to 200 μL of PBS containing 2 mM DTNB and 20 μg of cell lysate or mouse brain membrane proteome. Absorbance was measured at 412 nm over 5 min, and the rate of product accumulation was calculated from the slope of the absorbance over time. For assays involving preincubation with inhibitors, the reactions were prepared without acetylthiocholine and JW480 was incubated at the indicated concentration for 30 min at 37° C. Acetylthiocholine was then added and the assay was carried out exactly as described above.

[5] = target: T2, HSL (Mus musculus, UniProt P54310); experiment: Competitive ABPP of HSL in rosiglitazone-differentiated 3T3-10T1/2 adipocyte proteome; type: biochemical
T2 construct: ABPP analysis of HSL from a rosiglitazone-differentiated 3T3-10T1/2 adipocyte proteome; endogenous in cells; host or cells: rosiglitazone-differentiated 3T3-10T1/2 adipocytes
T2 sequence (P54310 1-759): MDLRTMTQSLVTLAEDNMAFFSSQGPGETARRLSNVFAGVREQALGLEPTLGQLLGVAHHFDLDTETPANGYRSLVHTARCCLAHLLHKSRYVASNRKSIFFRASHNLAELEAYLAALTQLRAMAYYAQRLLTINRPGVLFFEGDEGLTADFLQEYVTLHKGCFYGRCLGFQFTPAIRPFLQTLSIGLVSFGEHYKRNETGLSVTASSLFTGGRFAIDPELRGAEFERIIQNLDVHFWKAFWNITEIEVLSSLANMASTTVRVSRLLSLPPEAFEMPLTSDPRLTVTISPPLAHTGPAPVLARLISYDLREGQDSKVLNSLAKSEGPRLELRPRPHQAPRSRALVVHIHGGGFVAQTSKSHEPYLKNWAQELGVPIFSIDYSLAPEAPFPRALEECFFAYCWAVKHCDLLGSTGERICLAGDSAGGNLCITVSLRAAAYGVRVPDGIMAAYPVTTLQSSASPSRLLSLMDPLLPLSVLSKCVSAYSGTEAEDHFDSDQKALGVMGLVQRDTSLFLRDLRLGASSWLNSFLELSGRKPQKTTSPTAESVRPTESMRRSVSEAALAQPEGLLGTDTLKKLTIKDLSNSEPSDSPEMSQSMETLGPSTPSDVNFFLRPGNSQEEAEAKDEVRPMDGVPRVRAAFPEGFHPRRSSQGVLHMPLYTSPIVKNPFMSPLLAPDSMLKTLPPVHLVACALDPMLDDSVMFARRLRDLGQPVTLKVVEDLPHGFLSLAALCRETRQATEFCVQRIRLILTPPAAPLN
Description: (§3) For ABPP experiments, cell lysate and tissue proteomes were treated with 1 μM FP-rhodamine for 30 min at room temperature (50 μL total reaction volume) as described previously (Nomura et al., 2010). Reactions were quenched with one volume of standard 4×SDS/PAGE loading buffer (reducing), separated by SDS/PAGE (10% acrylamide), and visualized in-gel with a Hitachi FMBio IIe flatbed fluorescence scanner (MiraiBio). Inhibitors were preincubated prior (30 min or 4 h at 37° C. in vitro or in situ, respectively) to the addition of FP-rhodamine.

[6] = target: T3, KIAA1363 (Mus musculus, UniProt Q8BLF1); experiment: Gel-based competitive ABPP of KIAA1363 in mouse brain membrane proteome (FP-rhodamine); type: biochemical
T3 construct: ABPP analysis of KIAA1363 activity in mouse brain membrane proteome; from tissue; host or cells: mouse brain (membrane fraction)
T3 sequence (Q8BLF1 1-408): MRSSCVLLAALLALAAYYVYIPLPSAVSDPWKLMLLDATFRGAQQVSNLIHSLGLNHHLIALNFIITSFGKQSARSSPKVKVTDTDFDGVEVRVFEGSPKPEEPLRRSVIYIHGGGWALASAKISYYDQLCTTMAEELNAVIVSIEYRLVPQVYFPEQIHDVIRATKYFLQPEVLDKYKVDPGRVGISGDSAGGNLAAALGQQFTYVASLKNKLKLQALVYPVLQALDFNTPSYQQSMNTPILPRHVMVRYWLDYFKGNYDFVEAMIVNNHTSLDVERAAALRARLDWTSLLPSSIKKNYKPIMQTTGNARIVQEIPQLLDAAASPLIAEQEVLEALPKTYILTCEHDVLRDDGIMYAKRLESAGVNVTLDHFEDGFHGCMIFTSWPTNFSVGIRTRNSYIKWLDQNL
Description: In various embodiments, the invention provides a method of inhibiting a serine hydrolase, comprising contacting the hydrolase with a compound of formula (I), e.g., a compound selected from set of compounds shown in Table 1, below. […] IC50 values were derived from ABPP analysis of KIAA1363 activity in mouse brain membrane proteome and are averages of three replicates. Inhibitors were added to the proteome for 30 min before addition of FP-rhodamine (1 μM, 30 min).
Tissues were Dounce-homogenized in PBS, pH 7.4, followed by a low-speed spin (1,400 g, 5 min) to remove debris. The supernatant was then subjected to centrifugation (100,000×g, 45 min) to provide the cytosolic fraction in the supernatant and the unsoluble fraction as a pellet. The pellet was washed and resuspended in PBS buffer by sonication. Total protein concentration in each fraction was determined using a protein assay kit (Bio-Rad). Samples were stored at −80° C. until use.
as §3

[7] = mouse brain membrane proteome, inhibitor 30 min before FP-rhodamine (1 μM, 30 min), averages of three replicates, read-out: IC50 (KIAA1363)
[8] = screened against KIAA1363, Table 1, read-out: IC50 values of less than 1 micromolar
[9] = screened against KIAA1363, Table 1, read-out: IC50 values of around 10 nanomolar (most potent)

Compound: CCCCOC[C@H]1CCCC[C@H]1COCCNC(=O)Oc1ccccc1F [AS115, reference compound]
- PC3 and DU145 invasion [1]: impair
- MAGE levels [2]: lower MAGE levels
- PC3 and DU145 serum-free cell survival [3]: impair

Compound: Cc1ccc2ccccc2c1OC(=O)NCCc1ccc2ccccc2c1 [JW440, 2-methylnaphthalen-1-yl (2-(naphthalen-2-yl)ethyl)carbamate]
- Cross-reactivity with AChE [4]: little or no activity
- Cross-reactivity with HSL [5]: little or no activity
- IC50 [6, 7]: 437 nM
- IC50 [6, 8]: < 1000 nM

Compound: CCOc1ccccc1OC(=O)NCCc1ccc(OC)cc1 [JW441, 2-ethoxyphenyl 4-methoxyphenethylcarbamate]
- IC50 [6, 7]: > 10000 nM

Compound: CCOc1ccccc1OC(=O)NCCc1cccc(OC)c1 [JW442, 2-ethoxyphenyl 3-methoxyphenethylcarbamate]
- IC50 [6, 7]: 1010 nM

Compound: CCOc1ccccc1OC(=O)NCCC(c1ccccc1)c1ccccc1 [JW443, 2-ethoxyphenyl (3,3-diphenylpropyl)carbamate]
- IC50 [6, 7]: 1830 nM

Compound: CCOc1ccccc1OC(=O)NCC(c1ccccc1)c1ccccc1 [JW444, 2-ethoxyphenyl (2,2-diphenylethyl)carbamate]
- IC50 [6, 7]: 1050 nM

Compound: O=C(NCCc1ccc(C(F)(F)F)cc1)Oc1ccc(-n2cccc2)cc1 [JW446, 4-(1H-pyrrol-1-yl)phenyl 4-(trifluoromethyl)phenethylcarbamate]
- IC50 [6, 7]: > 50000 nM

Compound: Cc1ccc2ccccc2c1OC(=O)NCCc1ccc(C(F)(F)F)cc1 [JW447, 2-methylnaphthalen-1-yl 4-(trifluoromethyl)phenethylcarbamate]
- IC50 [6, 7]: 858 nM

Compound: CCOc1ccccc1OC(=O)NCCc1ccc(C(F)(F)F)cc1 [JW448, 2-ethoxyphenyl 4-(trifluoromethyl)phenethylcarbamate]
- IC50 [6, 7]: 293 nM
- IC50 [6, 8]: < 1000 nM

Compound: CC(C)c1ccccc1OC(=O)NCCc1ccc(F)cc1 [JW464, 2-isopropylphenyl 4-fluorophenethylcarbamate]
- Cross-reactivity with AChE [4]: cross-reactivity
- IC50 [6, 7]: 11.3 nM
- IC50 [6, 9]: ~10 nM

Compound: COc1ccc(OC(=O)NCCc2ccc(F)cc2)c2ccccc12 [JW465, 4-methoxynaphthalen-1-yl 4-fluorophenethylcarbamate]
- IC50 [6, 7]: > 50000 nM

Compound: Cc1ccc(C(C)C)c(OC(=O)NCCc2ccc(F)cc2)c1 [JW466, 2-isopropyl-5-methylphenyl 4-fluorophenethylcarbamate]
- IC50 [6, 7]: 197 nM
- IC50 [6, 8]: < 1000 nM

Compound: C=CCc1ccccc1OC(=O)NCCc1ccc(F)cc1 [JW468, 2-allylphenyl 4-fluorophenethylcarbamate]
- IC50 [6, 7]: 94.3 nM

Compound: CN(C)c1cccc(OC(=O)NCCc2ccc(F)cc2)c1 [JW469, 3-(dimethylamino)phenyl 4-fluorophenethylcarbamate]
- IC50 [6, 7]: 5160 nM

Compound: O=C(NCCc1ccc(F)cc1)Oc1ccc(C2CCCCC2)cc1 [JW472, 4-cyclohexylphenyl 4-fluorophenethylcarbamate]
- IC50 [6, 7]: 119 nM
- IC50 [6, 8]: < 1000 nM

Compound: O=C(NCCc1ccc(F)cc1)Oc1ccc(-c2ccccc2)cc1 [JW473, [1,1′-biphenyl]-4-yl 4-fluorophenethylcarbamate]
- IC50 [6, 7]: 955 nM
- IC50 [6, 8]: < 1000 nM

Compound: O=C(NCCc1ccc(F)cc1)Oc1ccc(C2CCCC2)cc1 [JW474, 4-cyclopentylphenyl 4-fluorophenethylcarbamate]
- IC50 [6, 7]: 795 nM

Compound: COc1cccc(OC(=O)NCCc2ccc(F)cc2)c1OC [JW477, 2,3-dimethoxyphenyl 4-fluorophenethylcarbamate]
- IC50 [6, 7]: > 10000 nM

Compound: CC(C)c1ccccc1OC(=O)NCCc1ccc2c(c1)OCO2 [JW481, 2-isopropylphenyl (2-(benzo[d][1,3]dioxol-5-yl)ethyl)carbamate]
- IC50 [6, 7]: 11.3 nM
- IC50 [6, 9]: ~10 nM

Compound: CC(C)c1ccccc1OC(=O)NCCc1ccc(C(F)(F)F)cc1 [JW482, 2-isopropylphenyl 4-(trifluoromethyl)phenethylcarbamate]
- IC50 [6, 7]: 9.4 nM
- IC50 [6, 9]: ~10 nM
